# Assay results published in US9751858B2, “3-heteroaroylamino-propionic acid derivatives and their use as pharmaceuticals” (SANOFI, priority 2011, dated 2017).
# Target: T1, Recombinant human cathepsin A (Homo sapiens, UniProt P10619)
# T1 construct: Recombinant human cathepsin A (residues 29-480, with a C-terminal 10-His tag); 10-His (C); purchased R&D Systems 1049-SE
# T1 sequence (P10619 29-326 limits assumed): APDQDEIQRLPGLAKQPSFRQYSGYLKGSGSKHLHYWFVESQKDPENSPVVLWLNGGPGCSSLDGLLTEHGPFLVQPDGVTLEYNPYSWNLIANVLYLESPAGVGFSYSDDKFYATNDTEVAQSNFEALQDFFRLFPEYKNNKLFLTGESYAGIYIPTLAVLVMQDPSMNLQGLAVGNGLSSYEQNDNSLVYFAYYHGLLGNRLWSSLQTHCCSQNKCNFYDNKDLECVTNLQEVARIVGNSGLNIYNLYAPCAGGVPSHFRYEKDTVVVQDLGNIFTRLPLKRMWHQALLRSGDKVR
# T1 sequence (P10619 327-480 limits assumed): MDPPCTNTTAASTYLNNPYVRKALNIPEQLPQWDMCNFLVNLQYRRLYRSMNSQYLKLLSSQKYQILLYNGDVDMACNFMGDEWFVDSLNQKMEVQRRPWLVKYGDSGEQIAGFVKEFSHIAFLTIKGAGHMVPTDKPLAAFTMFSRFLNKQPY
# Assay: Cathepsin A inhibitory activity
# Type: biochemical
# Conditions: activated recombinant human cathepsin A 833 ng/ml, Bodipy FL-labeled bradykinin 2 μM, pH 5.5, 15 min room temperature
# Method in brief: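 Cathepsin A activated by cathepsin L (15 min, 37 °C, pH 6.0), then preincubated 15 min at room temperature with compound in 25 mM MES pH 5.5, 5 mM DTT. Bodipy FL-bradykinin cleavage ran 15 min at room temperature; substrate and product separated by microfluidic capillary electrophoresis, turnover from peak areas.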
row,Compound,IC50 [µM]
1,"Cc1ccccc1[C@H](CC(=O)O)NC(=O)c1nn(C)cc1NS(=O)(=O)CCc1ccccc1 [Example 121, (S)-3-{[1-Methyl-4-(2-phenyl-ethanesulfonylamino)-1H-pyrazole-3-carbonyl]-amino}-3-o-tolyl-propionic acid]",> 10
2,"O=C(O)C[C@H](NC(=O)c1nc(-c2ccccc2)oc1C(F)(F)F)c1cccc(Cl)c1Cl [Example 122, (S)-3-(2,3-Dichloro-phenyl)-3-[(2-phenyl-5-trifluoromethyl-oxazole-4-carbonyl)-amino]-propionic acid]",1.95

# Now from value to compound:
row,IC50 [µM],Compound
1,8.01,"COc1cccc([C@H](CC(=O)O)NC(=O)c2nc(-c3ccccc3)oc2C(F)(F)F)c1OC [Example 120, (S)-3-(2,3-Dimethoxy-phenyl)-3-[(2-phenyl-5-trifluoromethyl-oxazole-4-carbonyl)-amino]-propionic acid]"
2,14.4,"O=C(O)C[C@H](NC(=O)c1nc(-c2ccccc2)oc1C(F)(F)F)c1ccc(Cl)cc1Cl [Example 123, (S)-3-(2,4-Dichloro-phenyl)-3-[(2-phenyl-5-trifluoromethyl-oxazole-4-carbonyl)-amino]-propionic acid]"
3,0.0509,"O=C(O)C[C@H](NC(=O)c1nc(-c2ccccc2)n(-c2ccccc2)n1)c1cccc(Cl)c1Cl [Example 124, (S)-3-(2,3-Dichloro-phenyl)-3-[(1,5-diphenyl-1H-[1,2,4]triazole-3-carbonyl)-amino]-propionic acid]"
4,0.241,"O=C(O)C[C@H](NC(=O)c1nc(-c2ccccc2)n(-c2ccccc2)n1)c1ccc(Cl)cc1Cl [Example 125, (S)-3-(2,4-Dichloro-phenyl)-3-[(1,5-diphenyl-1H-[1,2,4]triazole-3-carbonyl)-amino]-propionic acid]"

# System: platelet aggregation
# Assay: not given
# Conditions: hypertensive animals; H. Ostrowska et al., J. Cardiovasc. Pharmacol. 45 (2005); cited from earlier work
row,Compound,platelet aggregation
1,CC[C@@H](C)[C@@H](O)[C@H](C)C(=O)[C@H](C)/C=C(\C)C[C@H](C)[C@@H]1OC(=O)[C@H]1CC [ebelactone B],suppresses platelet aggregation
